This note sets out measurements from patent USRE38257E1, “Piperdine derivatives and hypotensives containing the same” (Ajinomoto Co., Inc., priority 1988, dated 2003).

The test system of this assay is male spontaneously hypertensive rats. As to the kind of experiment: Decrease in systolic blood pressure in spontaneously hypertensive rats after intravenous bolus injection, indirect (tail-cuff) method. It counts as in vivo, rat. The settings on record: for Decrease in systolic blood pressure (mmHg) time after administration (hour) 0.5: 0.5 hour after administration; for Decrease in systolic blood pressure (mmHg) time after administration (hour) 4: 4 hours after administration. On the procedure:
As test animals, four male spontaneously hypertensive rats (weight 400 to 440 g) that were sufficiently adapted for feeding and in which hypertension was confirmed were used.
Physiological saline aqueous solution containing 2.5% Nicolle and 2.5% ethanol of sample was intravenously administered by bolus injection at a dose of 1 ml per 1 kg of body weight. Systolic blood pressure after administration was measured by the indirect (tail-cuff) method.

As for `COc1cccc(CN2CCC(=C3c4ccccc4C=Cc4ccccc43)CC2)c1OC.Cl` [Example 173, 4-(5H-Dibenzo[a,d]cyclohepten-5-ylidene)-1-(2,3-dimethoxybenzyl)piperidine hydrochloride], under “dose 10 mg/kg i.v. bolus”, the “Decrease in systolic blood pressure (mmHg) time after administration (hour) 0.5” value (from here on “Decrease in systolic blood pressure … (hour) 0.5”) is listed as −98 mmHg and the “Decrease in systolic blood pressure (mmHg) time after administration (hour) 4” value (shortened to “Decrease in systolic blood pressure … (hour) 4”) is on record as −25 mmHg.
On to `Cl.Cl.Nc1cccc(CN2CCC(=C3c4ccccc4C=Cc4ccccc43)CC2)c1` [Example 139, 1-(3-Aminobenzy)-4-(5H-Dibenzo[a,d]cyclohepten-5-ylidene)piperidine dihydrochloride], for which, where the note is “dose 10 mg/kg i.v. bolus”, the “Decrease in systolic blood pressure … (hour) 0.5” value is −139 mmHg and the “Decrease in systolic blood pressure … (hour) 4” value is −89 mmHg.
`CCOC(=O)c1ccc(C=CCN2CCC(=C3c4ccccc4C=Cc4ccccc43)CC2)cc1.Cl` [Example 382, 4-(5H-Dibenzo[a,d]cyclohepten-5-ylidene)-1-(4-ethoxycarbonylcinnamyl)piperidine hydrochloride]: where the note is “dose 3 mg/kg i.v. bolus”, the “Decrease in systolic blood pressure … (hour) 0.5” value is on record as −129 mmHg and the “Decrease in systolic blood pressure … (hour) 4” value is given as −74 mmHg.
The like results for “1-(4-Acetylaminominocinnamyl)-4-(5H-Dibenzo[a,d]thiepiz-5-ylidene)-1-piperidine hydrochloride [Example 327]” were, in that order, −10 mmHg and −43 mmHg.
On to `Cl.Oc1ccc(C=CCN2CCC(=C3c4ccccc4C=Cc4ccccc43)CC2)cc1` [Example 363, 4-(5H-Dibenzo[a,d]cyclohepten-5-ylidene)-1-(4-hydroxycinnamyl)piperidine hydrochloride], for which the “Decrease in systolic blood pressure … (hour) 0.5” value (dose 3 mg/kg i.v. bolus) was −120 mmHg.
Consider `Cl.O=C(Nc1ccc(C=CCN2CCC(=C3c4ccccc4C=Cc4ccccc43)CC2)cc1)C(F)(F)F` [Example 380, 4-(5H-Dibenzo[a,d]cyclohepten-5-ylidene)-1-(4-trifluoroacetylaminocinnamyl)piperidine hydrochloride], for which the “Decrease in systolic blood pressure … (hour) 0.5” value (dose 0.3 mg/kg i.v. bolus) is recorded as −141 mmHg.
As for `CCOC(=O)C1(CCCCN2CCC(=C3c4ccccc4C=Cc4ccccc43)CC2)CCCCC1.Cl` [Example 269, 1-(4-(4-(5H-Dibenzo[a,d]cyclohepten-5-ylidene)-1-piperidinyl)-1-butyl)-1-ethoxycarbonxylcyclohexane hydrochloride], under “dose 10 mg/kg i.v. bolus”, the “Decrease in systolic blood pressure … (hour) 0.5” value came out at 143 mmHg and the “Decrease in systolic blood pressure … (hour) 4” value is on record as −71 mmHg.
For `C1=Cc2ccccc2C(=C2CCN(CCCC3CCCCC3)CC2)c2ccccc21.Cl` [Example 9, 1-Cyclohexyl-3-(4-(5H-dibenzo[a,d]cyclohepten-5-ylidene)-1-piperidinyl)propane hydrochloride], in that order: −91 mmHg and −19 mmHg.
Consider `COC(=O)C1(CCCCCN2CCC(=C3c4ccccc4C=Cc4ccccc43)CC2)CCCCC1.Cl` [Example 313, 1-(5-(4-(5H-Dibenzo[a,d]cyclohepten-5-ylidene)-1-piperidinyl)-1-pentyl)-1-methoxycarbonylcyclohexane hydrochloride], for which, for the setting “dose 10 mg/kg i.v. bolus”, the “Decrease in systolic blood pressure … (hour) 0.5” value was −154 mmHg and the “Decrease in systolic blood pressure … (hour) 4” value is listed as −85 mmHg.
As to `CC(=O)Nc1cccc(CCCN2CCC(=C3c4ccccc4C=Cc4ccccc43)CC2)c1.Cl` [Example 316, 1-(3-Acetylaminophenyl)-3-(4-(5H-dibenzo[a,d]cyclohepten-5-ylidene)-1-piperidinyl)propane hydrochloride], under “dose 1 mg/kg i.v. bolus”, the “Decrease in systolic blood pressure … (hour) 0.5” value was −100 mmHg and the “Decrease in systolic blood pressure … (hour) 4” value is given as 8 mmHg.
For `CCCCCCCN1CCC(=C2c3ccccc3C=Cc3ccccc32)CC1.Cl` [Example 134, 4-(5H-Dibenzo[a,d]cyclohepten-5-ylidene)-1-heptylpiperidine hydrochloride], under “dose 10 mg/kg i.v. bolus”, the “Decrease in systolic blood pressure … (hour) 0.5” value is −115 mmHg and the “Decrease in systolic blood pressure … (hour) 4” value is −30 mmHg.
The like results for `Cl.[O-][S+](CCCN1CCC(=C2c3ccccc3C=Cc3ccccc32)CC1)c1ccccc1` (stereo not drawn) [Example 239, 3-(4-(5H-Dibenzo[a,d]cyclohepten-5-ylidene)-1-piperidinyl)-1-propyl phenylsulphoxide hydrochloride] were, in that order, −68 mmHg and −15 mmHg.
For `COc1cccc(C=CC(=O)N2CCC(=C3c4ccccc4C=Cc4ccccc43)CC2)c1OC` [Example 192, 4-(5H-Dibenzo[a,d]cyclohepten-5-ylidene)-1-(2-dimethoxycinnamoyl)piperidine], under “dose 10 mg/kg i.v. bolus”, the “Decrease in systolic blood pressure … (hour) 0.5” value is listed as −25 mmHg and the “Decrease in systolic blood pressure … (hour) 4” value was −36 mmHg.
For `COc1cc(C(C#N)(CCCN2CCC(=C3c4ccccc4C=Cc4ccccc43)CC2)C(C)C)cc(OC)c1OC.Cl` (stereo not drawn) [Example 126, 5-(4-(5H-Dibenzo[a,d]cyclohepten-5-ylidene)-1-piperidinyl)-2-isopropyl-2-(3,4,5-trimethoxyphenyl)valeronitrile hydrochloride], under “dose 10 mg/kg i.v. bolus”, the “Decrease in systolic blood pressure … (hour) 0.5” value is recorded as −87 mmHg and the “Decrease in systolic blood pressure … (hour) 4” value is given as −19 mmHg.
On to `Cl.Fc1ccc(CN2CCC(=C3c4ccccc4C=Cc4ccccc43)CC2)cc1` [Example 113, 4-(5H-Dibenzo[a,d]cyclohepten-5-ylidene)-1-(4-fluorobenzyl)piperidine hydrochloride], for which, under “dose 1 mg/kg i.v. bolus”, the “Decrease in systolic blood pressure … (hour) 0.5” value is −151 mmHg and the “Decrease in systolic blood pressure … (hour) 4” value is given as −81 mmHg.
In the case of `CCCC(CCN1CCC(=C2c3ccccc3C=Cc3ccccc32)CC1)C(=O)c1ccc(OC)c(OC)c1.Cl` (stereo not drawn) [Example 277, 4-(4-(5H-dibenzo[a,d]cyclohepten-5-ylidene)-1-piperidinyl)-2-(1-propyl)-3′,4′-dimethoxybutyrophenone hydrochloride], where the note is “dose 10 mg/kg i.v. bolus”, the “Decrease in systolic blood pressure … (hour) 0.5” value was −27 mmHg and the “Decrease in systolic blood pressure … (hour) 4” value is 0 mmHg.
The like results for `COc1ccccc1CCCN1CCC(=C2c3ccccc3C=Cc3ccccc32)CC1.Cl` [Example 298, 3-(4-(5H-Dibenzo[a,d]cyclohepten-5-ylidene)-1-piperidinyl)-1-(2-methoxyphenyl)propane hydrochloride] were, in that order, −111 mmHg and −31 mmHg.
The like results for `COC1CCCC(CCCCN2CCC(=C3c4ccccc4C=Cc4ccccc43)CC2)C1.Cl` (stereo not drawn) [Example 299, 1-(1-(3-Methoxy)cyclohexyl)-4-(4-(5H-dibenzo[a,d]cyclohepten-5-ylidene)-1-piperidinyl)butane hydrochloride] were, in that order, −134 mmHg and −45 mmHg.
Consider `COc1cccc(C=CCN2CCC(=C3c4ccccc4C=Cc4ccccc43)CC2)c1.Cl` [Example 348, 4-(5H-Dibenzo[a,d]cyclohepten-5-ylidene)-1-(3-methoxycinnamyl)piperidine hydrochloride], for which, for the setting “dose 3 mg/kg i.v. bolus”, the “Decrease in systolic blood pressure … (hour) 0.5” value was −105 mmHg and the “Decrease in systolic blood pressure … (hour) 4” value is given as −12 mmHg.
For the molecule `Cl.O=C(CCCN1CCC(=C2c3ccccc3C=Cc3ccccc32)CC1)N1CCc2ccccc2C1` [Example 204, N-(4-(4-(5H-Dibenzo[a,d]cyclohepten-5-ylidene)-1-piperidinyl)butanoyl)-1,2,3,4-tetrahydroisoquinoline hydrochloride], where the note is “dose 10 mg/kg i.v. bolus”, the “Decrease in systolic blood pressure … (hour) 0.5” value was −141 mmHg and the “Decrease in systolic blood pressure … (hour) 4” value is listed as −84 mmHg.
As for `Cl.c1ccc2c(c1)CCc1ccccc1C2=C1CCN(CCCCC2CCCCC2)CC1` [Example 186], under “dose 10 mg/kg i.v. bolus”, the “Decrease in systolic blood pressure … (hour) 0.5” value is −95 mmHg and the “Decrease in systolic blood pressure … (hour) 4” value is recorded as −12 mmHg.
The like results for `COc1cc2nc(N3CCC(=C4c5ccccc5C=Cc5ccccc54)CC3)nc(N)c2cc1OC.Cl.Cl` [Example 266, 2-(4-(5H-Dibenzo[a,d]cyclohepten-5-ylidene)-1-piperidinyl)-4-amino-6,7-dimethoxyquinazoline dihydrochloride] were, in that order, −133 mmHg and −77 mmHg.
Consider `Cl.Fc1ccccc1CN1CCC(=C2c3ccccc3C=Cc3ccccc32)CC1` [Example 111, 4-(5H-Dibenzo[a,d]cyclohepten-5-ylidene)-1-(2-fluorobenzyl)piperidine hydrochloride], for which, for the setting “dose 10 mg/kg i.v. bolus”, the “Decrease in systolic blood pressure … (hour) 0.5” value is −98 mmHg and the “Decrease in systolic blood pressure … (hour) 4” value is recorded as −13 mmHg.
`C1=Cc2ccccc2C(=C2CCN(CCOCC3CCCCC3)CC2)c2ccccc21.Cl` [Example 279]: under “dose 3 mg/kg i.v. bolus”, the “Decrease in systolic blood pressure … (hour) 0.5” value is reported as −83 mmHg and the “Decrease in systolic blood pressure … (hour) 4” value is −24 mmHg.
Take `O=C(c1cccc2ccccc12)N1CCC(=C2c3ccccc3C=Cc3ccccc32)CC1` [Example 213, 4-(5H-Dibenzo[a,d]cyclohepten-5-ylidene)-1-(1-naphthoyl)piperidine]: where the note is “dose 10 mg/kg i.v. bolus”, the “Decrease in systolic blood pressure … (hour) 0.5” value was −82 mmHg and the “Decrease in systolic blood pressure … (hour) 4” value worked out at 3 mmHg.
